In test [1] the target is T1, MKNK1 (Homo sapiens, UniProt Q9BUB5, T385D).
T1 construct: GST (N); purchased Carna Biosciences 02-145; host or cells: insect cells (baculovirus expression system)
The experiment in a line: MKNK1 kinase high ATP assay (TR-FRET-based). The format is biochemical. The settings on record: 2 mM ATP, 15 min preincubation. Put shortly: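 GST-tagged full-length human MKNK1 (aa 1-424, T344D) from insect cells, preincubated with compound 15 min at 22 °C. Reaction 30 min at 22 °C with 2 mM ATP and 0.06 μM biotinylated peptide in HEPES pH 7.5, Mg2+, DTT. Phosphopeptide detected by TR-FRET (665/622 ratio) with anti-pS6 (pSer236) antibody; normalised to no-inhibitor and no-enzyme controls.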

The target of test [2] is T1, MKNK1. The experiment in a line: MKNK1 kinase assay (MKNK1 TR-FRET assay). The format is biochemical. The following applies: 10 μM ATP, 15 min preincubation. (In general: In TR-FRET formats the signal depends on donor and acceptor labels being close together.)

The term IC50 denotes the concentration that inhibits the measured activity by half.

T1 sequence (Q9BUB5 1-424 isoform Q9BUB5-2 T344D): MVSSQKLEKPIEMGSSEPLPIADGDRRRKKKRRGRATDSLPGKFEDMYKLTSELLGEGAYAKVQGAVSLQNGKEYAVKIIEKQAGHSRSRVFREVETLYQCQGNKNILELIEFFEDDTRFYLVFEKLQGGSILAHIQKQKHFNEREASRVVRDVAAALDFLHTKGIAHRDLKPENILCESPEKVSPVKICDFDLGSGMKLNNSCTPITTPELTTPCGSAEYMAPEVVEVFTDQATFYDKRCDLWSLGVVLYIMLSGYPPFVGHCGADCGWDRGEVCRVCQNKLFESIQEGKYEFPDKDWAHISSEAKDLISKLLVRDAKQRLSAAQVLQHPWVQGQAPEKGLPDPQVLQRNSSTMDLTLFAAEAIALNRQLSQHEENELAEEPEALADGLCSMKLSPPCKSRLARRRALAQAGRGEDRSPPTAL

Take `CC(C)(C)CC(=O)N1CCC[C@H]1CCOc1ccc2ncc(-c3cc4ccccc4o3)n2n1` [Example I-6, 1-[(2S)-2-(2-{[3-(1-Benzofuran-2-yl)imidazo[1,2-b]pyridazin-6-yl]oxy}ethyl)-pyrrolidin-1-yl]-3,3-dimethylbutan-1-one]: the results for the IC50 on MKNK1 [1] (Table 2a) and against MKNK1 [2] (Table 1a) were 9.2 nM and 3.4 nM, respectively.

With `CN1C(=O)CC[C@H]1COc1ccc2ncc(-c3cc4ccccc4o3)n2n1` [Example I-32, (5S)-5-({[3-(1-Benzofuran-2-yl)imidazo[1,2-b]pyridazin-6-yl]oxy}methyl)-1-methylpyrrolidin-2-one], the IC50 against MKNK1 [1] (Table 2a) amounted to 39.8 nM; on MKNK1 [2] (Table 1a), 13.7 nM.

As to `O=C(CC1CC1)N1CCC[C@H]1CCOc1ccc2ncc(-c3cc4ccccc4o3)n2n1` [Example I-51, 1-[(2S)-2-(2-{[3-(1-Benzofuran-2-yl)imidazo[1,2-b]-pyridazin-6-yl]oxy}ethyl)pyrrolidin-1-yl]-2-cyclopropylethanone], the 50% inhibitory concentration (IC50) against MKNK1 [1] (Table 2a) was 3.2 nM; at MKNK1 [2] (Table 1a), 2.1 nM.

Consider `C[C@H](N)COc1ccc2ncc(-c3cc4c(N5CCN(C)CC5)nccc4o3)n2n1` [III-8, (2S)-1-({3-[4-(4-Methylpiperazin-1-yl)furo[3,2-c]pyridin-2-yl]imidazo[1,2-b]pyridazin-6-yl}oxy)propan-2-amine], for which the results for the IC50 at MKNK1 [1] (Table 2c) and against MKNK1 [2] (Table 1c) were 16.3 nM and 7.2 nM, respectively.

Regarding `CC(C)CC(=O)NCCOc1ccc2ncc(-c3cc4ccccc4o3)n2n1` [Example I-72, N-(2-{[3-(1-Benzofuran-2-yl)imidazo[1,2-b]-pyridazin-6-yl]oxy}ethyl)-3-methylbutanamide], the IC50 was 14.7 nM at MKNK1 [1] (Table 2a) and 4.8 nM against MKNK1 [2] (Table 1a).

Turning to `O=C1CC[C@@H](COc2ccc3ncc(-c4cc5ccccc5o4)n3n2)N1` [Example I-7, (5S)-5-({[3-(1-Benzofuran-2-yl)imidazo[1,2-b]pyridazin-6-yl]oxy}methyl)-pyrrolidin-2-one], the figures for the IC50 at MKNK1 [1] (Table 2a) and against MKNK1 [2] (Table 1a) were 9.2 nM and 3.1 nM, respectively.

For `CC(=O)N1CCOC(COc2ccc3ncc(-c4cc5ccccc5o4)n3n2)C1` (stereo not drawn) [Example I-27, 1-[2-({[3-(1-Benzofuran-2-yl)imidazo[1,2-b]pyridazin-6-yl]oxy}methyl)-morpholin-4-yl]ethanone], the IC50 on MKNK1 [1] (Table 2a) is 23.5 nM; on MKNK1 [2] (Table 1a), 7.3 nM.

With `COc1cccc2oc(-c3cnc4ccc(OC[C@H]5CN(C(=O)C(F)(F)F)CCO5)nn34)cc12` [Example I-20, 2,2,2-Trifluoro-1-[(2R)-2-({[3-(4-methoxy-1-benzofuran-2-yl)imidazo[1,2-b]-pyridazin-6-yl]oxy}methyl)morpholin-4-yl]ethanone], the IC50 is 15.5 nM against MKNK1 [1] (Table 2a) and 7.7 nM on MKNK1 [2] (Table 1a).

On to `O=C(c1ccsc1)N1CCC[C@H]1CCOc1ccc2ncc(-c3cc4ccccc4o3)n2n1` [Example I-57, [(2S)-2-(2-{[3-(1-Benzofuran-2-yl)imidazo[1,2-b]-pyridazin-6-yl]oxy}ethyl)pyrrolidin-1-yl](thiophen-3-yl)methanone], for which the concentration for half-maximal inhibition (IC50) on MKNK1 [1] (Table 2a) came to 3.9 nM; against MKNK1 [2] (Table 1a) it was 1.9 nM.

For the molecule `N[C@H]1C[C@H](Oc2ccc3ncc(-c4cc5c(N6CCOCC6)nccc5o4)n3n2)C1` [III-95, trans-3-({3-[4-(Morpholin-4-yl)furo[3,2-c]pyridin-2-yl]imidazo[1,2-b]pyridazin-6-yl}oxy)cyclobutanamine], the IC50 on MKNK1 [1] (Table 2c) amounted to 7.8 nM; on MKNK1 [2] (Table 1c) it was 3.2 nM.

Regarding `O=C(C1CCCO1)N1CCC[C@H]1CCOc1ccc2ncc(-c3cc4ccccc4o3)n2n1` (stereo partly drawn) [Example I-53, [(2S)-2-(2-{[3-(1-Benzofuran-2-yl)imidazo[1,2-b]-pyridazin-6-yl]oxy}ethyl)pyrrolidin-1-yl](tetrahydrofuran-2-yl)methanone], the IC50 on MKNK1 [1] (Table 2a) is 3.5 nM; at MKNK1 [2] (Table 1a), 2.4 nM.

On to `N[C@H]1C[C@H](Oc2ccc3ncc(-c4cc5c(N6CCOCC6)cccc5o4)n3n2)C1` [II-4, trans-3-({3-[4-(Morpholin-4-yl)-1-benzofuran-2-yl]imidazo[1,2-b]pyridazin-6-yl}oxy)cyclobutanamine], for which the 50% inhibitory concentration (IC50) turned out to be 28 nM against MKNK1 [1] (Table 2b) and 18 nM at MKNK1 [2] (Table 1b).

`COc1ccc2ncc(-c3cc4c(N5CCN[C@H](C)C5)nccc4o3)n2n1` [III-144, 6-methoxy-3-{4-[(3R)-3-methylpiperazin-1-yl]furo[3,2-c]pyridin-2-yl}imidazo[1,2-b]pyridazine]: the IC50 against MKNK1 [1] (Table 2c) is 6.7 nM; at MKNK1 [2] (Table 1c), 4.6 nM.

As to `O=C1CC[C@H](COc2ccc3ncc(-c4cc5c(N6CCOCC6)cccc5o4)n3n2)N1` [II-5, (5R)-5-[({3-[4-(Morpholin-4-yl)-1-benzofuran-2-yl]imidazo[1,2-b]pyridazin-6-yl}oxy)methyl]pyrrolidin-2-one], the results for the IC50 at MKNK1 [1] (Table 2b) and on MKNK1 [2] (Table 1b) were 27 nM and 15 nM, respectively.

As for `O=C(NCCOc1ccc2ncc(-c3cc4ccccc4o3)n2n1)c1ccco1` [Example I-77, N-(2-{[3-(1-Benzofuran-2-yl)imidazo[1,2-b]-pyridazin-6-yl]oxy}ethyl)furan-2-carboxamide], the IC50 on MKNK1 [1] (Table 2a) was 22.2 nM; against MKNK1 [2] (Table 1a), 7.9 nM.

For `C[C@@H]1CN(c2nccc3oc(-c4cnc5ccc(O[C@H]6C[C@H](N)C6)nn45)cc23)C[C@H](C)O1` [III-104, trans-3-[(3-{4-[(2R,6S)-2,6-Dimethylmorpholin-4-yl]furo[3,2-c]pyridin-2-yl}imidazo[1,2-b]pyridazin-6-yl)oxy]cyclobutanamine], the IC50 at MKNK1 [1] (Table 2c) came to 61.5 nM; on MKNK1 [2] (Table 1c) it was 18.7 nM.

In the case of `O=C(CO)NCCOc1ccc2ncc(-c3cc4ccccc4o3)n2n1` [Example I-67, N-(2-{[3-(1-Benzofuran-2-yl)imidazo[1,2-b]-pyridazin-6-yl]oxy}ethyl)-2-hydroxyacetamide], the IC50 on MKNK1 [1] (Table 2a) amounted to 20.3 nM; against MKNK1 [2] (Table 1a), 6.6 nM.

On to `CC(C)(C)CC(=O)N1CCOC(COc2ccc3ncc(-c4cc5ccccc5o4)n3n2)C1` (stereo not drawn) [Example I-14, 1-[2-({[3-(1-Benzofuran-2-yl)imidazo[1,2-b]pyridazin-6-yl]oxy}methyl)-morpholin-4-yl]-3,3-dimethylbutan-1-one], for which the IC50 was 10.9 nM on MKNK1 [1] (Table 2a) and 5.1 nM at MKNK1 [2] (Table 1a).

`COc1cccc2oc(-c3cnc4ccc(OC[C@H]5CN(C(=O)C(C)(C)C)CCO5)nn34)cc12` [Example I-21, 1-[(2R)-2-({[3-(4-Methoxy-1-benzofuran-2-yl)imidazo[1,2-b]pyridazin-6-yl]-oxy}methyl)morpholin-4-yl]-2,2-dimethylpropan-1-one]: the results for the half-inhibitory concentration (IC50) at MKNK1 [1] (Table 2a) and against MKNK1 [2] (Table 1a) were 17.7 nM and 6.6 nM, respectively.

As to `C[C@@H]1COCCN1c1nccc2oc(-c3cnc4ccc(OC[C@@H]5CCC(=O)N5)nn34)cc12` [III-85, (5S)-5-{[(3-{4-[(3R)-3-Methylmorpholin-4-yl]furo[3,2-c]pyridin-2-yl}imidazo[1,2-b]pyridazin-6-yl)oxy]methyl}pyrrolidin-2-one], the IC50 turned out to be 5.2 nM against MKNK1 [1] (Table 2c) and 4.8 nM on MKNK1 [2] (Table 1c).

Consider `CCN(CCOC)c1cccc2oc(-c3cnc4ccc(OC[C@H]5CCC(=O)N5)nn34)cc12` [II-17, (5R)-5-{[(3-{4-[Ethyl(2-methoxyethyl)amino]-1-benzofuran-2-yl}imidazo[1,2-b]-pyridazin-6-yl)oxy]methyl}pyrrolidin-2-one], for which the 50% inhibitory concentration (IC50) was determined as 0.5 nM on MKNK1 [1] (Table 2b) and 0.6 nM against MKNK1 [2] (Table 1b).

In the case of `c1cc(N2CCOCC2)c2cc(-c3cnc4ccc(OC[C@H]5CNCCO5)nn34)oc2c1` [II-1, 3-[4-(Morpholin-4-yl)-1-benzofuran-2-yl]-6-[(2R)-morpholin-2-ylmethoxy]-imidazo[1,2-b]pyridazine], the IC50 against MKNK1 [1] (Table 2b) turned out to be 20 nM; at MKNK1 [2] (Table 1b) it was 8.5 nM.

On to `N[C@H]1C[C@H](Oc2ccc3ncc(-c4cc5c(N6CCNCC6)nccc5o4)n3n2)C1` [III-103, trans-3-({3-[4-(Piperazin-1-yl)furo[3,2-c]pyridin-2-yl]imidazo[1,2-b]pyridazin-6-yl}oxy)cyclobutanamine], for which the values for the IC50 against MKNK1 [1] (Table 2c) and against MKNK1 [2] (Table 1c) were 18.6 nM and 9.1 nM, respectively.

`C[C@H](N)COc1ccc2ncc(-c3cc4c(N5C[C@@H](C)O[C@@H](C)C5)nccc4o3)n2n1` [III-19, (2S)-1-[(3-{4-[(2R,6S)-2,6-Dimethylmorpholin-4-yl]furo[3,2-c]pyridin-2-yl}imidazo[1,2-b]pyridazin-6-yl)oxy]propan-2-amine]: the IC50 at MKNK1 [1] (Table 2c) is 42.7 nM; against MKNK1 [2] (Table 1c) it was 12.2 nM.

Regarding `CCN(CCOC)c1nccc2oc(-c3cnc4ccc(OCC5CCCCN5)nn34)cc12` (stereo not drawn) [III-41, N-Ethyl-N-(2-methoxyethyl)-2-[6-(piperidin-2-ylmethoxy)imidazo[1,2-b]pyridazin-3-yl]furo[3,2-c]pyridin-4-amine], the IC50 was 17.6 nM against MKNK1 [1] (Table 2c) and 12 nM against MKNK1 [2] (Table 1c).

For the molecule `CC(C)(C)OC(=O)N1CCN(c2nccc3oc(-c4cnc5ccc(OC[C@H]6CCC(=O)N6)nn45)cc23)CC1` [III-70, tert-Butyl 4-[2-(6-{[(2R)-5-oxopyrrolidin-2-yl]methoxy}imidazo[1,2-b]pyridazin-3-yl)furo[3,2-c]pyridin-4-yl]piperazine-1-carboxylate], the IC50 against MKNK1 [1] (Table 2c) stood at 13.5 nM; against MKNK1 [2] (Table 1c), 4.8 nM.

For the molecule `CCN(CCOC)c1nccc2oc(-c3cnc4ccc(O[C@H]5Cc6ccccc6[C@H]5N)nn34)cc12` [III-112, 2-(6-{[(1R,2S)-1-Amino-2,3-dihydro-1H-inden-2-yl]oxy}imidazo[1,2-b]pyridazin-3-yl)-N-ethyl-N-(2-methoxyethyl)furo[3,2-c]pyridin-4-amine], the results for the IC50 on MKNK1 [1] (Table 2c) and at MKNK1 [2] (Table 1c) were 88.1 nM and 15.6 nM, respectively.

These data come from patent publication US20160287589A1, “SUBSTITUTED-IMIDAZOPYRIDAZINES” (BAYER PHARMA AKTIENGESELLSCHAFT, priority 2013, published 2016).
